{"source": "paper PMC8868346", "about": "“Novel Series of Dual NRF2 Inducers and Selective MAO-B Inhibitors for the Treatment of Parkinson’s Disease” (Antioxidants, 2022)", "key": {"rat striatal slices [1]": {"system": "rat striatal slices", "test": "Rat striatal slices exposed to rotenone: ROS production", "type": "cell-based", "settings": "compound 10 µM, rotenone 10 µM, 4 h", "method": "(§1) Three- to four-month-old Sprague–Dawley rats were decapitated, the brain was removed, and the two brain hemispheres were separated. Each hemisphere was then cut into 300-µm coronal slices using a McIlwain Tissue Chopper (Cavey Laboratory Engineering, Surrey, UK) and separated in a previously oxygenated (95% O2 and 5% CO2) ice-cold Krebs’s dissection buffer (120 mM of NaCl; 2 mM of KCl; 26 mM of NaHCO3; 1.18 mM of KH2PO4; 10 mM of MgSO4; 0.5 mM of CaCl2; 11 mM of glucose; and 200 mM sucrose at pH 7.4) using a Leica SE6 microscope (Leica, Madrid, Spain). Striatum-containing slices were selected and immediately incubated for stabilization in dissection buffer without sucrose, bubbled with 95% O2 and 5% CO2 for 45 min at 34 °C, allowing slices to recover from slicing injury. […] Finally, cell death and the ROS production were measured.\n(§2) ROS quantification was performed using the fluorescent probe 2,7′-dichlorodihydrofluorescein diacetate (H2DCFDA, λEx/Em = 495/529 nm; Thermo Fisher, Madrid, Spain). Cell death quantification was performed using the fluorescent probe propidium iodide (PI, λEx/Em = 535/617 nm; Thermo Fisher, Madrid, Spain). […] Fluorescence from striatum slices was then recorded for H2DCFDA (λEx/Em = 495/529 nm), PI (λEx/Em = 535/617 nm), and Hoechst (λEx/Em = 350/461 nm), in an inverted Nikon Eclipse T2000-U microscope (Nikon, Tokyo, Japan). […]"}, "rat striatal slices [2]": {"system": "rat striatal slices", "test": "Rat striatal slices exposed to 6-OHDA: cell death and ROS production", "type": "cell-based", "settings": "compound 10 µM, 6-OHDA 100 µM, 4 h", "method": "as §1, §2"}, "MAO-B": {"target": "T1, MAO-B (Homo sapiens, UniProt P27338)", "T1 construct": "purchased Sigma–Aldrich", "T1 sequence (P27338 1-520)": "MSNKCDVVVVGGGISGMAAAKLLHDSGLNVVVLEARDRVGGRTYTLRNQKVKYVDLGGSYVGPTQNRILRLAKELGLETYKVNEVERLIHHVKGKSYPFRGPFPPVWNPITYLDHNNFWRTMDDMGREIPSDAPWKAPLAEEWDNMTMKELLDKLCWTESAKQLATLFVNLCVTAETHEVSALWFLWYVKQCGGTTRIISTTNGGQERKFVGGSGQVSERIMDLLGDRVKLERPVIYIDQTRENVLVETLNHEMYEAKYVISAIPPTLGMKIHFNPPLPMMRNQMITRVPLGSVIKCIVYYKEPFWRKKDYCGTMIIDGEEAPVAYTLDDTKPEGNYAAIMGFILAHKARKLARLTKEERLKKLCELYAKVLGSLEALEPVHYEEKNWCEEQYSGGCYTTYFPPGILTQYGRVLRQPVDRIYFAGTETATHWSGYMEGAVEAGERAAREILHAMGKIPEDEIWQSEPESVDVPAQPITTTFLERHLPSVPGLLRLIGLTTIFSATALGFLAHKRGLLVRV", "test": "MAO-B reversibility assay (pre-incubation times)", "type": "biochemical", "settings": "0, 15, 30 min pre-incubation at […] IC50"}}}
{"smiles": "C#CCN(CC#C)CCc1c[nH]c2ccc(OC(=O)C=Cc3ccccc3)cc12", "note": "[Compound 14, 3-(2-(Di(prop-2-yn-1-yl)amino)ethyl)-1H-indol-5-yl Cinnamate]", "values": [{"measurement": "ROS levels (H2DCFDA), rotenone model", "setting": "rat striatal slices [1]", "value": "reduced"}, {"measurement": "ROS production (H2DCFDA), 6-OHDA model", "setting": "rat striatal slices [2]", "value": "significantly decreased ROS production"}, {"measurement": "cell death (propidium iodide), 6-OHDA model", "setting": "rat striatal slices [2]", "value": "significant reduction in cell death"}, {"measurement": "MAO-B inhibition reversibility", "setting": "MAO-B", "value": "reversible inhibition"}]}
